The source of these data is US12162935B2, “Regimens, compositions and methods with capsaicin and TNF-alpha inhibitor” (priority 2018, dated 2024).

For series [1], the system named is rat cochlea. Description: Cochlear gene expression by q-PCR (cisplatin study). Type of series: in vivo.
The subject of a further series is UB/OC1 cells. Description: Bax/Bcl-2 ratio in UB/OC1 cells. The series is classed as cell-based, mouse.
For series [2], the system named is Wistar rats. Nature of the series: Restoration of hearing after permanent threshold shifts (Example 10B). The series is classed as in vivo, rat. The note with it: treatment after PTS at 4 weeks; oral capsaicin 5 mg/kg 3 days, ETA 1 mg/kg s.c. day 2, three weeks. As to the method: FIG. 23A is a schematic showing the experimental paradigm used in Example 10B. Pre-treatment baseline ABRs were performed in naïve male Wistar rats. The rats were then used either as sham controls (no noise exposure) or exposed-noise (122 dB, OBN centered at 16 kHz for 1 hour). Post noise exposure ABRs were repeated at 4 weeks to establish permanent threshold shifts (PTS). […] Final ABR threshold values were evaluated at week 9 post noise exposure.
Values shown in FIGS. 23A-23C and otherwise provided with respect to this Example 10B are expressed as the mean±SEM. Statistical significance was analyzed using the ANOVA and Tukey's host hoc analysis.

Series [3] concerns rat cochlea. Nature of the series: Cochlear gene expression by qPCR after noise exposure. The series is classed as in vivo. As to the method:
Cochleae were pared down to the bone, crushed in liquid nitrogen followed by extraction in 500 μl of TRI reagent. 0.1 ml of chloroform was added, and the tube was shaken vigorously for 15 seconds and centrifuged at 12,000×g for 15 min. RNA was extracted by washing the pellet with 0.5 ml ice-cold isopropanol followed by cold 75% treated ethanol. The ethanol was removed and the tube was air dried briefly. The RNA pellet was resuspended in nuclease free water and RNA levels were determined using optical density readings corresponding to wavelengths of 260 nm, 280 and 320 nm using a spectrophotometer (Eppendorf BioPhotometer, Hamburg, Germany).
500 ng of total RNA was converted to cDNA using iScript cDNA Synthesis Kit (Bio-Rad, Hercules, CA). The reaction mixture was set up as follows: Ing of total RNA, 4 μl of iScript reaction mix, 1 μl of iScript reverse transcriptase, nuclease free water to bring the total volume to 20 μl. The reaction mix was incubated at 25° C. for 5 min, 42° C. for 30 minutes and 85° C. for 5 minutes. This cDNA reaction mix was used for real time PCR, as described previously [Mukherjea et al., 2006]. Gene specific primer pairs were used for the various reactions and mRNA expression levels were normalized to the levels of GAPDH. The primer sets were purchased from Sigma Genosys (St. Louis, MO), and were as follows: […]

The next series relates to CB2 receptor. Description: Immunoblotting for CB1 and CB2 receptors. Type of series: cell-based, mouse. To be noted: capsaicin 2.5 μM 24 h. As to the method: FIG. 10.A. UBOC-1 cells were treated with capsaicin (2.5 μM) for 24 h. Total protein was extracted and immunoblotting was performed for CB1 and CB2 receptors. B-actin was used for housekeeping and loading control. Capsaicin increased CB2 receptor staining. FIG. 10.B. Cochleae were harvested from rats treated with either oral PBS or oral capsaicin (20 mg/kg) for 24 h. Total RNA was harvested, converted to c-DNA and probed for CB2 receptor expression by q-PCR. GAPDH was used as housekeeping gene. […] FIG. 10.C. and FIG. 10.D. Cochleae were harvested from rats treated with PBS, fixed in 4% paraformaldehyde in PBS for 8 h. They were then decalcified in EDTA (10 mM), and mid modiolar sections of the cochleae were probed for the cannabinoid receptors subtypes, CB1 (FIG. 10.C.) and CB2 (FIG. 10.D.), while nuclei were stained with DAPI. Fluorescent images were obtained with a Leica confocal microscope. […] Magnification for OHC, spiral ganglion cells and stria vascularis (40×). Similar images were obtained from 3 different animals.
Total cell lysates were prepared using ice-cold lysis buffer containing 50 mM Tris HCl, 10 mM MgCl2 and 1 mM EDTA in the presence of protease inhibitors mixture and phosphatase inhibitor 1 (1:100) (Sigma, St. Louis, MO). The lysates were kept on ice for 5 min followed by centrifugation. The clear supernatant was transferred to a clean tube and discarded the pellet. […]

Series [4] relates to Wistar rats. The note with it: capsaicin TT 50 μl of 0.1 μM; Mukherjea et al., 2011; cited from earlier work.

With `COc1cc(CNC(=O)CCCC/C=C/C(C)C)ccc1O` [capsaicin, 8-methyl-N-vanillyl-trans-6-nonenamide], the “expression of TRPV1, NOX3 and iNOS” value in the series with rat cochlea [1] (TT-capsaicin 24 h prior to cisplatin) is “significant reduction”. Moreover, the “expression of TRPV1, NOX3 and iNOS” value in the series with rat cochlea [1] (capsaicin alone) was “did not significantly change”. For the same molecule, the “CB2 receptor expression in the rat cochlea” value with rat cochlea [1] (oral capsaicin) is “increased the expression of CB2 receptor”. Further, the “Bax/Bcl-2 ratio, rat cochlea” value in the series with rat cochlea [1] (oral capsaicin prior to cisplatin) is recorded as “significant decrease”. Also, the “Bax/Bcl-2 ratio, rat cochlea” value in the series with rat cochlea [1] (single agent (cisplatin or oral capsaicin alone)) is listed as “less than half of that observed following cisplatin alone”. For the same molecule, the Bax/Bcl-2 ratios in the series with UB/OC1 cells was 1.1±0.2. Also, the “average hearing threshold shifts at 9 weeks” value with Wistar rats [2] is 15-25 dB. Further, in the series with rat cochlea [3] (oral Cap+NE), the “Bax gene expression over oral PBS control” value was 0.86±0.1 fold, the “COX2 gene expression over oral PBS control” value is given as 0.84±0.2 fold, the “NOX3 gene expression over oral PBS control” value was found to be 0.5±0.2 fold and the “TNF-α gene expression over oral PBS control” value is 0.9±0.1 fold. The “TRPV1 gene expression over oral PBS control” value in the series on rat cochlea [3] (oral Cap+NE) was 0.85±0.2 fold. For the same molecule, in the series on rat cochlea [3] (oral capsaicin alone), the “Bax gene expression over oral PBS control” value came out at 0.69±0.1 fold, the “COX2 gene expression over oral PBS control” value is 1±0.1 fold, the “NOX3 gene expression over oral PBS control” value worked out at 0.7±0.2 fold and the “TNF-α gene expression over oral PBS control” value is listed as 1±0.15 fold. Further, the “TRPV1 gene expression over oral PBS control” value in the series with rat cochlea [3] (oral capsaicin alone) came to 0.9±0.1 fold. For the same molecule, the CB2 expression entry with CB2 receptor was “increased CB2 expression”. In addition, the “duration of transient ABR threshold shift” value in the series on Wistar rats [4] was 24 h.
